Assay results as given in patent EP3305781A1, “CHEMICAL SUBSTANCES WHICH INHIBIT THE ENZYMATIC ACTIVITY OF HUMAN KALLIKREIN-RELATED PEPTIDASE 6 (KLK6)” (Deutsches Krebsforschungszentrum, priority 2016, dated 2018).
Like-named read-outs stand apart in the source and are kept apart here.

Experiments:
Assay in all cases: Biochemical inhibition assay, fluorogenic substrate FSR-AMC
KLK6 = KLK6 (Homo sapiens, UniProt Q92876)
Thrombin = Thrombin (Homo sapiens, UniProt P00734)
Trypsin = Trypsin (Homo sapiens, UniProt P07477)
Factor Xa = Factor Xa (Homo sapiens, UniProt P00742)
Factor Xa, sequence (P00742 235-488 limits assumed): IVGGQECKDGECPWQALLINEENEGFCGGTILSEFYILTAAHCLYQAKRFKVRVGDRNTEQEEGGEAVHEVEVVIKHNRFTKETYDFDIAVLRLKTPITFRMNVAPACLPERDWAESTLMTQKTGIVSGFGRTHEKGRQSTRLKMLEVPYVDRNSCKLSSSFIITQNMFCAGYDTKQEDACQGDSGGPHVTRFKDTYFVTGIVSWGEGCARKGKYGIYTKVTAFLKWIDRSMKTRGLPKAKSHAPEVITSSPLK
Factor Xa, sequence (P00742 41-179 partner limits assumed): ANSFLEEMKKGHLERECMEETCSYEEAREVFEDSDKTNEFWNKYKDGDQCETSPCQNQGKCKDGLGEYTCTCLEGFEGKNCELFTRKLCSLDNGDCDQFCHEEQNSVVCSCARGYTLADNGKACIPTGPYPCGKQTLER

[1] = read-out: KLK6 IC50, KLK6 5 nM (produced in insect cells), 30 min incubation with inhibitor, FSR-AMC 20 µM, Tris pH 7.5
[2] = read-out: Thrombin IC50, Thrombin 9.8·10^-5 NIH unit/mL, 30 min incubation with inhibitor, FSR-AMC 20 µM, Tris pH 7.5
[3] = read-out: Trypsin IC50, Trypsin 0.88 ng/mL, 30 min incubation with inhibitor, FSR-AMC 20 µM, Tris pH 7.5
[4] = read-out: Factor Xa IC50, Factor Xa 4 nM, 30 min incubation with inhibitor, FSR-AMC 20 µM, Tris pH 7.5

Row | Structure (SMILES) | IC50 (KLK6; [1]) | IC50 (Thrombin; [2]) | IC50 (Trypsin; [3]) | IC50 (Factor Xa; [4]) | IC50 (KLK6) | IC50 (Thrombin) | IC50 (Trypsin) | IC50 (Factor Xa)
1 | Cc1nn(-c2ccccc2)c(C)c1NC(=O)COC(=O)Cn1c(C)cc2cccc(Cl)c21 [compound 33] | 6.49 µM | > 50 µM | > 50 µM | > 50 µM |  |  |  | 
2 | COc1ccccc1NC(=O)COC(=O)Cc1c(C)[nH]c2ccccc12 [compound 77] | 1.86 µM | > 200 µM | 28.7 µM | 21.1 µM |  |  |  | 
3 | COc1ccc(NC(=O)COC(=O)Cc2c(C)[nH]c3ccccc23)cc1 [compound 80] | 6.55 µM | > 200 µM | > 200 µM | > 200 µM |  |  |  | 
4 | Cc1nn(-c2ccc([N+](=O)[O-])cc2)c(C)c1NC(=O)COC(=O)Cn1c(C(F)(F)F)cc2ccccc21 [compound 21] | 112 µM | > 200 µM | > 200 µM | > 200 µM |  |  |  | 
5 | Cc1[nH]c2ccccc2c1CC(=O)OCC(=O)Nc1cccc(C(N)=O)c1 [compound 84] | 3.27 µM | 90.6 µM | 82.1 µM | 67.5 µM |  |  |  | 
6 | Cc1nn(-c2ccccc2)c(C)c1NC(=O)COC(=O)C(C)n1c(C)cc2ccccc21 (centres unmarked) [compound 34] | 11.3 µM | > 50 µM | > 50 µM | > 50 µM |  |  |  | 
7 | Cc1ccccc1CC(=O)OCC(=O)Nc1c(C)nn(-c2ccccc2)c1C [compound 50] | 2.16 µM | > 200 µM | > 200 µM | > 200 µM |  |  |  | 
8 | Cc1cccc(NC(=O)COC(=O)Cc2c(C)[nH]c3ccccc23)c1 [compound 75] | 5.38 µM | > 200 µM | > 200 µM | > 200 µM |  |  |  | 
9 | Cc1ccc(NC(=O)COC(=O)Cc2c(C)[nH]c3ccccc23)cc1 [compound 74] | 4.57 µM | > 200 µM | > 200 µM | > 200 µM |  |  |  | 
10 | Cc1nn(-c2ccccc2)c(C)c1NC(=O)COC(=O)Cc1ccsc1 [compound 70] |  | > 200 µM | > 200 µM | > 200 µM |  |  |  | 
11 | Cc1nn(-c2ccccc2N)c(C)c1NC(=O)COC(=O)Cn1c(C)cc2ccccc21 [compound 23] | 0.375 µM | > 200 µM | > 200 µM | > 200 µM |  |  |  | 
12 | Cc1[nH]c2ccccc2c1CC(=O)OCC(=O)NC1CCCC1 [compound 71] | 78.7 µM | > 200 µM | > 200 µM | > 200 µM |  |  |  | 
13 | CC(=O)Nc1cccc(CC(=O)OCC(=O)Nc2c(C)nn(-c3ccccc3)c2C)c1 [compound 47] | 31.4 µM | > 200 µM | > 200 µM | > 200 µM |  |  |  | 
14 | Cc1ccccc1NC(=O)COC(=O)Cn1c(C)cc2ccccc21 [compound 26] |  | > 50 µM | > 50 µM | > 50 µM |  |  |  | 
15 | Cc1nn(-c2ccccc2)c(C)c1NC(=O)COC(=O)Cn1cc(C)c2ccccc21 [compound 14, 2-((3,5-dimethyl-1-phenyl-1H-pyrazol-4-yl)amino)-2-oxoethyl 2-(3-methyl-1H-indol-1-yl)acetate] |  |  |  |  | 16.2 µM | > 200 µM | > 200 µM | > 200 µM
16 | Cc1nn(-c2ccccc2)c(C)c1NC(=O)COC(=O)Cn1ccc2cccc(Cl)c21 [compound 31] | 1.2 µM | > 50 µM | > 50 µM | > 50 µM |  |  |  | 
17 | Cc1nn(-c2ccccc2C(F)(F)F)c(C)c1NC(=O)COC(=O)Cn1c(C)cc2ccccc21 [compound 8, 2-((3,5-dimethyl-1-(2-(trifluoromethyl)phenyl)-1H-pyrazol-4-yl)amino)-2-oxoethyl 2-(2-methyl-1H-indol-1-yl)acetate] |  |  |  |  | 0.258 µM | > 200 µM | 126 µM | 139 µM
18 | Cc1nn(-c2ccccc2)c(C)c1NC(=O)COC(=O)C(C)c1c(C)[nH]c2ccccc12 (centres unmarked) [compound 81] |  | > 200 µM | > 200 µM | > 200 µM |  |  |  | 
19 | Cc1[nH]c2ccccc2c1CC(=O)OCC(=O)Nc1ccc(F)cn1 [compound 72] | 12.3 µM | 60.3 µM | 50.4 µM | 65.9 µM |  |  |  | 
20 | Cc1nn(-c2ccccc2)c(C)c1NC(=O)COC(=O)Cc1ccccc1OCc1ccccc1 [compound 69] | 57.4 µM | > 200 µM | > 200 µM | > 200 µM |  |  |  | 
21 | Cc1nn(-c2ccccc2)c(C)c1NC(=O)COC(=O)C(C)c1c[nH]c2ccccc12 (centres unmarked) [compound 83] | 14.3 µM | > 200 µM | > 200 µM | > 200 µM |  |  |  | 
22 | Cc1nn(-c2ccccc2)c(C)c1NC(=O)COC(=O)Cn1c(C(F)(F)F)cc2ccccc21 [compound 16] | 0.158 µM | > 200 µM | > 200 µM | > 200 µM |  |  |  | 
23 | Cc1nn(-c2ccccc2)c(C)c1NC(=O)COC(=O)Cc1ccc(N)cc1 [compound 44] | 12.2 µM | > 50 µM | > 50 µM |  |  |  |  | 

Row | Structure (SMILES) | IC50 (KLK6; [1]) | IC50 (Thrombin; [2]) | IC50 (Trypsin; [3]) | IC50 (Factor Xa; [4]) | IC50 (KLK6) | IC50 (Thrombin) | IC50 (Trypsin) | IC50 (Factor Xa)
24 | C=CCOc1ccccc1NC(=O)COC(=O)Cc1ccccc1I [compound 65] | 38.7 µM | > 200 µM | > 200 µM | > 200 µM |  |  |  | 
25 | Cc1nn(-c2ccccc2)c(C)c1NC(=O)COC(=O)Cn1ccc2ccccc21 [compound 11, 2-((3,5-dimethyl-1-phenyl-1H-pyrazol-4-yl)amino)-2-oxoethyl 2-(1H-indol-1-yl)acetate] |  |  |  |  | 14.5 µM | > 200 µM | > 200 µM | > 200 µM
26 | Cc1[nH]c2ccccc2c1CC(=O)OCC(=O)NC(C)(C)C [compound 67] | 166 µM | > 200 µM | > 200 µM | > 200 µM |  |  |  | 
27 | COc1cccc(CC(=O)OCC(=O)Nc2c(C)nn(-c3ccccc3)c2C)c1 [compound 53] | 30 µM | > 200 µM | > 200 µM | > 200 µM |  |  |  | 
28 | CCc1cc2ccccc2n1CC(=O)OCC(=O)Nc1c(C)nn(-c2ccccc2)c1C [compound 36] | 0.433 µM | > 50 µM | 29.3 µM | > 50 µM |  |  |  | 
29 | Cc1nn(-c2ccccc2)c(C)c1NC(=O)COC(=O)Cn1c(C)cc2cc(Cl)ccc21 [compound 30] |  | > 50 µM | > 50 µM | > 50 µM |  |  |  | 
30 | Cc1nn(-c2ccccc2)c(C)c1NC(=O)COC(=O)Cc1cccc(C#N)c1 [compound 56] | 16.1 µM | > 200 µM | > 200 µM | > 200 µM |  |  |  | 
31 | Cc1nn(-c2ccccc2)c(C)c1N(C)C(=O)COC(=O)Cc1c(C)[nH]c2ccccc12 [compound 88] | 2.88 µM | 14.1 µM | 9.1 µM | 18.1 µM |  |  |  | 
32 | COc1ccc(Cn2nc(C)c(NC(=O)COC(=O)Cn3c(C)cc4ccccc43)c2C)cc1 [compound 7, 2-((1-(4-methoxybenzyl)-3,5-dimethyl-1H-pyrazol-4-yl)amino)-2-oxoethyl 2-(2-methyl-1H-indol-1-yl)acetate] |  |  |  |  | 0.598 µM | > 200 µM | > 200 µM | > 200 µM
33 | Cc1nn(-c2ccccc2)c(C)c1NC(=O)COC(=O)Cc1ccsc1Cl [compound 66] | 7.4 µM | > 200 µM | > 200 µM | > 200 µM |  |  |  | 
34 | Cc1nn(-c2ccccc2)c(C)c1NC(=O)COC(=O)CCc1c(C)[nH]c2ccccc12 [compound 87] |  | > 200 µM | > 200 µM | > 200 µM |  |  |  | 
35 | Cc1nn(-c2ccccc2)c(C)c1NC(=O)COC(=O)Cc1c(C)[nH]c2ccccc12 [compound 38] |  | > 50 µM | 27.4 µM | > 50 µM |  |  |  | 
36 | Cc1nn(-c2ccccc2)c(C)c1NC(=O)COC(=O)Cc1c[nH]c2ccccc12 [compound 12, 2-((3,5-dimethyl-1-phenyl-1H-pyrazol-4-yl)amino)-2-oxoethyl 2-(1H-indol-3-yl)acetate] |  |  |  |  |  | > 200 µM | 139 µM | 135 µM
37 | Cc1[nH]c2ccccc2c1CC(=O)OCC(=O)Nc1cncnc1 [compound 86] |  | 66.1 µM | > 200 µM | 148 µM |  |  |  | 
38 | Cc1nn(-c2ccccc2)c(C)c1NC(=O)COC(=O)Cn1c(C)cc2ccccc21 [compound 1, 2-((3,5-dimethyl-1-phenyl-1H-pyrazol-4-yl)amino)-2-oxoethyl 2-(2-methyl-H-indol-1-yl)acetate] |  |  |  |  |  | > 200 µM | 39.4 µM | > 200 µM
39 | Cc1nn(-c2ccccc2)c(C)c1NC(=O)COC(=O)Cc1ccccc1 [compound 43] |  | > 50 µM | > 50 µM |  |  |  |  | 
40 | Cc1nn(-c2ccccc2)c(C)c1NC(=O)COC(=O)Cc1ccccc1Cl [compound 45] | 1.36 µM | > 50 µM | > 50 µM |  |  |  |  | 
41 | Cc1nn(-c2ccccc2)c(C)c1NC(=O)COC(=O)Cc1ccccc1Br [compound 48] |  | > 200 µM | > 200 µM | > 200 µM |  |  |  | 
42 | Cc1nn(-c2ccccc2)c(C)c1NC(=O)C1(OC(=O)Cn2c(C)cc3ccccc32)CC1 [compound 40] |  | > 50 µM | > 50 µM | > 50 µM |  |  |  | 
43 | Cc1nn(-c2ccccc2)c(C)c1NC(=O)COC(=O)Cc1ccc(C#N)cc1 [compound 46] | 29.4 µM | > 50 µM | > 50 µM |  |  |  |  | 
44 | Cc1[nH]c2ccccc2c1CC(=O)OCC(=O)Nc1ccc(N2CCOCC2)cc1 [compound 76] |  | > 200 µM | > 200 µM | > 200 µM |  |  |  | 
45 | Cc1nn(-c2ccccc2)c(C)c1NC(=O)COC(=O)Cc1cccc2ccccc12 [compound 42] |  | > 50 µM | > 50 µM |  |  |  |  | 
